The results in this text go back to patent EP3628672A1 (priority 2018, dated 2020).

The target of test [1] is T1, purified LasB protein from P. aeruginosa (Pseudomonas aeruginosa, UniProt P14756).
T1 construct: purchased Merck or Charles River Laboratories
The experiment in a line: Fluorometric assay to determine Ki (Abz-Ala-Gly-Leu-Ala-p-Nitro-Benzyl-Amide substrate). Type of test: biochemical. As to the method:
(§1) Experiments were therefore conducted (1) to measure the potency of inhibition of compounds of the invention against purified Pseudomonas aeruginosa LasB enzyme and also experiments were conducted (2) to measure the ability of compounds of the invention to inhibit LasB-catalysed elastin degradation. The first assay uses a commercial fluorescent synthetic peptide and purified LasB enzyme. The LasB hydrolysis kinetics are measured allowing the determination of the IC50 and Ki of the inhibitors; the second is a more physiological assay using dialysed Pseudomonas aeruginosa supernatant as source of enzyme, plus its natural substrate Elastin. It is an "end point assay" that determines the percentage of LasB inhibition by each compound for one particular time point and inhibitor concentration. Technical details are described below:
This assay uses commercially available substrate (Abz-Ala-Gly-Leu-Ala-p-Nitro-Benzyl-Amide (Ex: 340 nm, Em: 415 nm) from Peptide International) and purified LasB protein from P. aeruginosa (provided by Merck or Charles River Laboratories). It is performed to determine LasB elastase activity and assess compound inhibition in 96-well plate format. All compounds of Formula (I) were assessed using the method described below.
Method: 10 to 140 ng/ml purified LasB is incubated with 250 µM Abz-Ala-Gly-Leu-Ala-p-Nitro-Benzyl-Amide in 50 mM Tris-HCl pH 7.4, 2.5 mM CaCl2, 0.01% of Triton X100 at 37°C. LasB activity (corresponding to fluorescence emission induced by substrate hydrolysis) is measured over 30 min at 37°C with a fluorescence plate reader such as the Perkin Elmer Envision or similar. Different range of inhibitor concentrations are routinely assessed depending of inhibitor potency from 0.0016 to 200 µM (2-fold dilutions series) in order to determine IC50.
The equation used to calculate the Ki from IC50 is: Ki = IC50 / (1+([S]/Km)) where [S] = 250 µM and Km = 214 µM.

The target in the next test is T2, LasB (Pseudomonas aeruginosa, UniProt P14756).
T2 construct: uses as source of enzyme dialysed supernatant from P. aeruginosa PAO1; endogenous in cells; host or cells: P. aeruginosa PAO1 culture supernatant, filtered and dialysed
T2 sequence (P14756 198-498): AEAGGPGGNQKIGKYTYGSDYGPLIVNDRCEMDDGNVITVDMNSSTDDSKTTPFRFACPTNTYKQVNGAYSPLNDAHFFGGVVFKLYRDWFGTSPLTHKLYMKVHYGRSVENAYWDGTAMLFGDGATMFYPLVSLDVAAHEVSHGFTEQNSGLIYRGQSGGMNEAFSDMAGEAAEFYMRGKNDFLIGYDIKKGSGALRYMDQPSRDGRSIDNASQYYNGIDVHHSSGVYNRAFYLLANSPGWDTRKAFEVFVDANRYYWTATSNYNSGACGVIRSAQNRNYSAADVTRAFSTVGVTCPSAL
The experiment in a line: Elastin assay to determine % inhibition (Elastin Congo-Red, dialysed culture supernatant). Type of test: biochemical, P. aeruginosa PAO1. Conditions: read-out: Elastin hydrolysis % inhibition @ 50 / 25 µM inhibitor concentration. As to the method: as §1
The Elastin assay uses as source of enzyme dialysed supernatant from P. aeruginosa PAO1 and the Elastin Congo-Red as substrate. The natural LasB substrate, elastin, is complexed with the congo-red dye (Elastin Congo-Red, ECR). The elastolysis activity from the culture supernatant will degrade elastin and release the congo-red dye into the supernatant. This red dye release can be measured with a spectrophotometer.
Method: To determine LasB elastase activity and assess compound inhibition, an overnight culture of P. aeruginosa strain PAO1 is diluted in LB medium. After reaching an OD600nm of 0.6, this culture is diluted and incubated for additional 18-24 hours in a shaking incubator. Culture supernatants are recovered by centrifugation and filtrated through a […] filter. These supernatants are dialysed (filtration molecules < 20kDa) into a 50 mM Tris-HCl pH 7.4, 2.5 mM CaCl2 solution at 4°C under agitation for 24 hours. Supernatant dialysed is then mixed volume/volume with the ECR suspension (20 mg/mL of ECR in 100 mM Tris-HCl pH 7.4 buffer supplemented with 1 mM CaCl2) supplemented with Triton X100 (final concentration of 0.01%) in presence of DMSO (positive control) and/or different concentrations of compound (routinely 50 to 1.56 µM). As a negative control, the dialysed supernatant is replaced by Tris-HCl solution (50 mM Tris-HCl pH 7.4, 2.5 mM CaCl2). The mixed reaction is then incubated overnight in a 37°C shaking incubator. The reaction supernatant is recovered by centrifugation and the release of congo-red is measured by its absorbance at 495 nm (OD495nm).
Percentage inhibition is determined using the following equation: ((OD495nmvalue of positive control−OD495nmvalue of negative control)−(OD495nmvalue of treated supernatant−OD495nmvalue of positive control))/(OD495nmvalue of positive control−OD495nmvalue of negative control) × 100. [formula]

For orientation: Ki means a measure of affinity in units of concentration, obtained from inhibition or displacement. A lower Ki goes with higher affinity.

T1 sequence (P14756 198-498): as above

For the molecule `CN1CCN(c2ccc(-c3csc(CNC(=O)C4(CC(=O)O)Cc5ccccc5C4)n3)cn2)CC1` [Example 34, 2-[2-[[4-[6-(4-methylpiperazin-1-yl)-3-pyridyl]thiazol-2-yl]methylcarbamoyl]indan-2-yl]acetic acid], the Ki in test [1] is 50 to 200 nM. Also, the inhibition at 25 µM on LasB lay in the range of 60 to 75%.

The molecule `CN(C)CCNS(=O)(=O)c1cccc(-c2csc(CNC(=O)C3(CC(=O)O)Cc4ccccc4C3)n2)c1` [Example 129, 2-[2-[[4-[3-[2-(dimethylamino)ethylsulfamoyl]phenyl]thiazol-2-yl]methylcarbamoyl]indan-2-yl]acetic acid] gave a Ki in test [1] of 200 to 10000 nM. Also, the inhibition at 25 µM on LasB was 60 to 75%.

In test [1], `O=C(O)CC1(C(=O)NCc2nc(-c3cnn(CCCN4CCOCC4)c3)cs2)Cc2ccccc2C1` [Example 99, 2-[2-[[4-[1-(3-morpholinopropyl)pyrazol-4-yl]thiazol-2-yl]methylcarbamoyl]indan-2-yl]acetic acid] returned a Ki of 50 to 200 nM. Also, the inhibition at 25 µM at LasB is 60 to 75%.

On to `O=C(O)CC1(C(=O)NCc2nc(-c3cnn(CCN4CCOCC4)c3)cs2)Cc2ccccc2C1` [Example 96, 2-[2-[[4-[1-(2-morpholinoethyl)pyrazol-4-yl]thiazol-2-yl]methylcarbamoyl]indan-2-yl]acetic acid], for which the inhibition constant (Ki) in test [1] lay in the range of 50 to 200 nM. On LasB, the inhibition at 25 µM is 60 to 75%.

As for `CCc1ccccc1-c1csc(CNC(=O)C2(CC(=O)O)Cc3ccccc3C2)n1` [Example 147, 2-[2-[[4-(2-ethylphenyl)thiazol-2-yl]methylcarbamoyl]indan-2-yl]acetic acid], the Ki in test [1] is 50 to 200 nM. For the same molecule, the inhibition at 25 µM at LasB was in the range of 60 to 75%.

As for `C[N+]1(CCOc2ccc(-c3csc(CNC(=O)C4(CC(=O)[O-])Cc5ccccc5C4)n3)cc2)CCOCC1` [Example 50, 2-[2-[[4-[4-[2-(4-methylmorpholin-4-ium-4-yl)ethoxy]phenyl]thiazol-2-yl]methylcarbamoyl]indan-2-yl]acetate], the Ki in test [1] lay in the range of 200 to 10000 nM. For the same molecule, the inhibition at 25 µM on LasB was in the range of 60 to 75%.

`CN(C)C1CCN(S(=O)(=O)c2cc(-c3csc(CNC(=O)C4(CC(=O)O)Cc5cc(F)c(F)cc5C4)n3)ccc2OCCN2CCOCC2)CC1` [Example 134, 2-[2-[[4-[3-[[4-(dimethylamino)-1-piperidyl]sulfonyl]-4-(2-morpholinoethoxy)phenyl]thiazol-2-yl]methylcarbamoyl]-5,6-difluoro-indan-2-yl]acetic acid] came in with an inhibitory constant (Ki) in test [1] of 50 to 200 nM. On LasB, the inhibition at 25 µM fell in the range of 60 to 75%.

In the case of `O=C(O)CC1(C(=O)NCc2nc(-c3ccccc3O)cs2)Cc2ccccc2C1` [Example 10, 2-[2-[[4-(2-hydroxyphenyl)thiazol-2-yl]methylcarbamoyl]indan-2-yl]acetic acid], in test [1], the Ki fell in the range of 50 to 200 nM. Further, on LasB, the inhibition at 25 µM fell in the range of 10 to 60%.

For the molecule `CN1CCC(n2cc(-c3csc(CNC(=O)C4(CC(=O)O)Cc5ccccc5C4)n3)cn2)CC1` [Example 102, 2-[2-[[4-[1-(1-methyl-4-piperidyl)pyrazol-4-yl]thiazol-2-yl]methylcarbamoyl]indan-2-yl]acetic acid], the Ki in test [1] was 200 to 10000 nM. The inhibition at 25 µM on LasB was in the range of 60 to 75%.

On to `O=C(O)CC1(C(=O)NCc2nc(-c3ccncc3)cs2)Cc2ccccc2C1` [Example 95, 2-[2-[[4-(4-pyridyl)thiazol-2-yl]methylcarbamoyl]indan-2-yl]acetic acid], for which the Ki in test [1] lay in the range of 200 to 10000 nM. Moreover, the inhibition at 25 µM at LasB lay within 60 to 75%.

In the case of `COc1ccc(-c2csc(CNC(=O)C3(CC(=O)O)Cc4cc(F)c(F)cc4C3)n2)cc1S(=O)(=O)N1CCC(N(C)C)CC1` [Example 123, 2-[2-[[4-[3-[[4-(dimethylamino)-1-piperidyl]sulfonyl]-4-methoxy-phenyl]thiazol-2-yl]methylcarbamoyl]-5,6-difluoro-indan-2-yl]acetic acid], the Ki in test [1] is < 50 nM. Moreover, at LasB, the inhibition at 25 µM lay within 60 to 75%.

In the case of `O=C(O)CC1(C(=O)NCc2nc(-c3cccnc3)cs2)Cc2ccccc2C1` [Example 8, 2-[2-[[4-(3-pyridyl)thiazol-2-yl]methylcarbamoyl]indan-2-yl]acetic acid], in test [1], the Ki lay within 50 to 200 nM. Moreover, the inhibition at 25 µM at LasB was 60 to 75%.

With `COc1cc(OCc2ccncc2)ccc1-c1csc(CNC(=O)C2(CC(=O)O)Cc3ccccc3C2)n1` [Example 74, 2-[2-[[4-[2-methoxy-4-(4-pyridylmethoxy)phenyl]thiazol-2-yl]methylcarbamoyl]indan-2-yl]acetic acid], the Ki in test [1] is < 50 nM. The inhibition at 25 µM at LasB is > 75%.

As for `C[N+]1(CCc2ccc(-c3csc(CNC(=O)C4(CC(=O)[O-])Cc5ccccc5C4)n3)cn2)CCOCC1` [Example 141, 2-[2-[[4-[6-[2-(4-methylmorpholin-4-ium-4-yl)ethyl]-3-pyridyl]thiazol-2-yl]methylcarbamoyl]indan-2-yl]acetate], the inhibition constant Ki in test [1] fell in the range of 50 to 200 nM. For the same molecule, the inhibition at 25 µM on LasB fell in the range of 60 to 75%.

Take `COc1ccc(S(=O)(=O)N2CCC(N(C)C)CC2)cc1-c1csc(CNC(=O)C2(CC(=O)O)Cc3cc(F)c(F)cc3C2)n1` [Example 125, 2-[2-[[4-[5-[[4-(dimethylamino)-1-piperidyl]sulfonyl]-2-methoxy-phenyl]thiazol-2-yl]methylcarbamoyl]-5,6-difluoro-indan-2-yl]acetic acid]: in test [1], the Ki lay within 50 to 200 nM. In addition, the inhibition at 25 µM on LasB is 10 to 60%.

Turning to `CN(C)CC#Cc1ccc(-c2csc(CNC(=O)C3(CC(=O)O)Cc4ccccc4C3)n2)cc1` [Example 37, 2-[2-[[4-[4-[3-(dimethylamino)prop-1-ynyl]phenyl]thiazol-2-yl]methylcarbamoyl]indan-2-yl]acetic acid], the Ki in test [1] lay in the range of 50 to 200 nM. Besides, at LasB, the inhibition at 25 µM lay in the range of 60 to 75%.

`O=C(O)CC1(C(=O)NCc2nc(-c3ccc(OCCCN4CCOCC4)cc3)cs2)Cc2ccccc2C1` [Example 55, 2-[2-[[4-[4-(3-morpholinopropoxy)phenyl]thiazol-2-yl]methylcarbamoyl]indan-2-yl]acetic acid]: the Ki in test [1] lay within 50 to 200 nM. At LasB, the inhibition at 25 µM lay in the range of 60 to 75%.

On to `COc1cc(OCCCN2CCCC2)ccc1-c1csc(CNC(=O)C2(CC(=O)O)Cc3cc(F)c(F)cc3C2)n1` [Example 72, 2-[5,6-difluoro-2-[[4-[2-methoxy-4-(3-pyrrolidin-1-ylpropoxy)phenyl]thiazol-2-yl]methylcarbamoyl]indan-2-yl]acetic acid], for which, in test [1], the inhibitory constant (Ki) was < 50 nM. In addition, the inhibition at 25 µM at LasB fell in the range of 10 to 60%.

The molecule `CN1CCN(C(=O)CN2CCC(n3cc(-c4csc(CNC(=O)C5(CC(=O)O)Cc6ccccc6C5)n4)cn3)CC2)CC1` [Example 105, 2-[2-[[4-[1-[1-[2-(4-methylpiperazin-1-yl)-2-oxo-ethyl]-4-piperidyl]pyrazol-4-yl]thiazol-2-yl]methylcarbamoyl]indan-2-yl]acetic acid] displayed a Ki in test [1] of 50 to 200 nM. The inhibition at 25 µM at LasB was 60 to 75%.

With `CN1CCN(C(=O)c2ccc(-c3csc(CNC(=O)C4(CC(=O)O)Cc5ccccc5C4)n3)cc2)CC1` [Example 16, 2-[2-[[4-[4-(4-methylpiperazine-1-carbonyl)phenyl]thiazol-2-yl]methylcarbamoyl]indan-2-yl]acetic acid], the inhibition constant Ki in test [1] is 200 to 10000 nM. For the same molecule, the inhibition at 25 µM on LasB lay within 60 to 75%.

With `CS(=O)(=O)c1cc(-c2csc(CNC(=O)C3(CC(=O)O)Cc4ccccc4C3)n2)ccc1OCCCN1CCOCC1` [Example 60, 2-[2-[[4-[3-methylsulfonyl-4-(3-morpholinopropoxy)phenyl]thiazol-2-yl]methylcarbamoyl]indan-2-yl]acetic acid], in test [1], the Ki was < 50 nM. The inhibition at 25 µM at LasB is 60 to 75%.
